Experiment: Human HepG2 cell viability assay in 384 well format
Format: toxicity, cell-based
Design: dose 125 nL, time 70.5 hour; concentration not given beside the values
Conditions: HepG2 cells, read-out: Inhibition

Row | SMILES | cytotoxicity at 70.5 h [%]
1 | Cc1ccc(CNC(=O)Nc2cc(C(F)(F)F)c[nH]c2=O)cn1 | -0.26
2 | CCNC(=O)CCC(=O)NC1(c2cccc(Br)c2)CC1 | -2.97
3 | CC(C)c1noc(C2CCCN2S(=O)(=O)Cc2ccc(F)cc2)n1 (stereo not given) | 0.0647
4 | Cc1csc(NC(=O)c2ccc(NC(=O)N3CCOCC3)cc2)n1 | 3.47
5 | COc1cc(C(=O)N2Cc3cnc(C(C)(C)C)nc3C2)ccn1 | -2.74
6 | CNC(=O)c1cccnc1N1CCC(Oc2ccc(F)cc2)CC1 | -14.2
7 | CC(C)c1cc(Br)ccc1NC(=O)NC(C)(CO)CO | -5
8 | Cc1nc(-c2cnn(C)c2)nc2c1CN(C(=O)c1ccc[nH]1)CC2 | -6.12
9 | CS(=O)(=O)N1CCOC2(CCN(c3nccs3)CC2)c2ccccc21 | 15.3
10 | CN(Cc1ccsc1)C(=O)Nc1ccc(N2CCCC2)nc1 | 0.563
11 | Cn1cccc1-c1nnc(C2(c3ccc4c(c3)OCO4)CCOCC2)o1 | -9.42
12 | CCN(c1ccc(C(=O)NCCCN2CCCCC2)cc1)S(=O)(=O)CC | -26.7
13 | CC(C)CN1CCC2(CCN(CC3CC3)CC2)C1=O | -8.5
14 | Cc1cc(C)n(CC2CN(Cc3cccc(C#N)c3)CCO2)n1 (stereo not given) | -3.79
15 | CCCc1nc(C)cc(N2CCNC(C(=O)Nc3ccc(C)nc3)C2)n1 (stereo not given) | 19.3
16 | Cc1cnc(CNC(=O)N(Cc2ccccc2)CC(C)(C)O)s1 | -3.13
17 | Cc1cccc2c1cnn2CCCNC(=O)CCCC(=O)O | -4.18
18 | CC(C)c1nc(CN(C)C2CCN(Cc3nnc(C4CC4)o3)C2)no1 (stereo not given) | 1.8
19 | Cc1cnn(CCNCC(O)COc2ccc(F)cc2)c1 (stereo not given) | -10.4
20 | Cn1ccnc1CN1CCCC(CCc2ccc(F)c(F)c2)C1 (stereo not given) | -1.61
21 | CCc1nc(CCNC(=O)NC2CCN(C(C)C)C2)sc1C (stereo not given) | -3.64
22 | CC(C(=O)NC(C)(C)C)S(=O)(=O)Cc1noc(C(C)(C)C)n1 (stereo not given) | -5.8
23 | O=C1N[C@@H]2CCN(C(=O)C3CCC3)[C@@H]2C(=O)N1c1ccc(F)cc1 | 21.8

Row | SMILES | cytotoxicity at 70.5 h [%]
24 | Cn1cc(CCCNC(=O)NC2CCN(c3ccccc3)C2=O)cn1 (stereo not given) | -5.19
25 | Cc1nnc([C@H]2C[C@H]3CN(C(=O)Cc4ccc(F)cc4)CC[C@@H]3O2)o1 | -6.08
26 | CC/C(C)=C/CCN1CCN(C)C2(CCNC(=O)CC2)C1 (stereo not given) | -6.34
27 | CC(=O)N1CCCCCC1C1CCN(c2ncccc2C#N)CC1 (stereo not given) | -1.45
28 | Cc1ccc(C(=O)N(C)Cc2ccc(Br)o2)c(=O)[nH]1 | -2.83
29 | N#Cc1c(F)cccc1NCCCOCC1CCOC1 (stereo not given) | -0.771
30 | Cc1nc(NCC2CC2)nc2c1COCC21CCN(C(=O)NC(C)C)C1 (stereo not given) | -5.59
31 | c1csc(COC[C@H]2CCC[C@]23CN(Cc2ccoc2)CCO3)n1 | -9.63
32 | COCC1CC2(CCN(C(=O)c3ccccc3C)CC2)CN1C(C)C (stereo not given) | 19.7
33 | c1cnnc(N2CCCC2CNCc2noc(C3CC3)n2)c1 (stereo not given) | 27.1
34 | CCn1c(O)c(C(C)=O)c2cc(C)ccc21 | -6.19
35 | CCc1nnsc1C(=O)NCCC1CCCN(C(C)C)C1 (stereo not given) | 24.8
36 | COCC(C)NC(=O)CN1CCCC1 (stereo not given) | -23.1
37 | Cn1c(=O)ccn(CC(=O)NCC2Cc3ccccc3O2)c1=O (stereo not given) | -0.993
38 | O=C(NCC1(CO)CC1)c1ccccc1Cl | -14.1
39 | CCN(CC)c1ccc(CNC(=O)C2(C)CCOCC2)cc1F | 14.4
40 | CN(C)C[C@H]1C[C@@H](CO)CN(C(=O)c2cc(=O)[nH]c3cc(F)ccc23)C1 | -2.71
41 | COc1cccc(OC2CN(C(=O)c3cc(CC(C)C)nn3C)C2)c1 | -1.49
42 | Cn1ccc(C(=O)N2CCN(c3nccs3)CC2)cc1=O | 2.52
43 | O=C(O)c1cc2c(nc1-c1ccoc1)CCN(CC1CCOC1)CC2 (stereo not given) | -13.1
44 | COc1ccccc1N1CCN(C(=O)c2ccoc2)CC1 | -6.02
45 | O=C(Nc1ccccc1Oc1cccc(F)c1)NC1CCS(=O)(=O)C1 (stereo not given) | 2.26
46 | Cc1ccc(CN2CCCC3(CCN(Cc4ccoc4)CC3)C2)cc1 | 15.4

Row | SMILES | cytotoxicity at 70.5 h [%]
47 | COc1cccc(C2CC(=O)Nc3nc(N)sc32)c1OC (stereo not given) | 12.4
48 | CN(C)c1nccc(C2CCCCN2Cc2cnn3cccnc23)n1 (stereo not given) | -7.45
49 | CN(C(=O)OC(C)(C)C)C1CCN(C(=O)c2cc(Cl)c[nH]2)C1 (stereo not given) | 13
50 | CS(=O)(=O)NCC1CCN(Cc2cc3ccccc3[nH]c2=O)C1 (stereo not given) | -3.86
51 | COCCN(Cc1cnn(C)c1)C(=O)C1CCCN(C2CCOCC2)C1 (stereo not given) | -12.6
52 | Cc1cnn(CC2CCCN2CCCS(=O)(=O)N(C)C)c1 (stereo not given) | 2.72
53 | CS(=O)(=O)N1CCC2(COCc3cnc(-c4ccccc4)nc32)C1 (stereo not given) | -10.2
54 | COc1ccc(F)cc1NC(=O)NCC1(C)COC1 | 0.338
55 | Cc1ccc(N2CC(c3nccc(C)n3)C2)nn1 | 9.5
56 | CCOCCCNC(=O)c1ccccc1S(C)(=O)=O | -15.5
57 | OC(COCc1ccccc1)CN1CCC(Cn2cccn2)CC1 (stereo not given) | -22.4
58 | CN(C)c1ccc(NC(=O)NCc2ccccn2)cn1 | -13.6
59 | COCc1cnc2n1CCN(C(=O)c1cn(C)c3ccccc13)C2C (stereo not given) | -5.93
60 | Cc1nc(C2CCCN2Cc2ncc(C(C)C)o2)no1 (stereo not given) | 42.3
61 | CN(Cc1ccc(F)cc1)C(=O)CN1CCOC(Cn2cccn2)C1 (stereo not given) | 0.224
62 | Oc1cc(CN2CCC(O)(Cn3ccnc3)CC2)nc2ccc(F)cc12 | -7.61
63 | Cc1nc(CN(C)C2CCN(Cc3nc4ccccc4s3)C2)no1 (stereo not given) | -8.96
64 | CC(C(=O)N(C)Cc1ccc(Br)o1)n1cncn1 (stereo not given) | -1.04
65 | Cc1noc(C2CCC3(CCN(C(=O)c4ncccn4)CC3)O2)n1 (stereo not given) | 2.54
66 | Cc1nc(C)n(CC2CCCCN2CC(=O)NC(C2CC2)C2CC2)n1 (stereo not given) | 3.82
67 | O=C(CCc1cc(O)no1)N1CCCC(COc2ccccc2F)C1 (stereo not given) | -20.7
68 | CSCc1cccc(S(=O)(=O)NCCCO)c1 | -6.9
69 | Cn1ncc2c(N3CCCC4(CCNC4)C3)nc(C(C)(C)C)nc21 (stereo not given) | -11.5

Row | SMILES | cytotoxicity at 70.5 h [%]
70 | COc1ccc(NC(=O)C2CC2)cc1OCc1cccnc1 | 23
71 | O=C(CC1CCCC1)NCCS(=O)(=O)N1CCN(c2ccccn2)CC1 | -13
72 | COCCN1CCN(Cc2ccc(OCc3nccn3C)cc2)CC1 | -14.3
73 | O=C(NCCn1ccnc1-c1cc2n(n1)CCCNC2)c1ccncc1 | -2.02
74 | COc1nc(C)ccc1CNc1cc(N2CCCC2CO)ncn1 (stereo not given) | 7.33
75 | CNC(=O)Cn1nnc(-c2cc3ccccc3o2)n1 | -5.34
76 | COc1ccc(N2CCC(N3C[C@H](NC(C)=O)[C@@H](C(C)C)C3)CC2)cc1 | -7.18
77 | Cc1nc(CN)cc(N2CCC(O)(c3ccc(Cl)cc3)CC2)n1 | -1.91
78 | O=C(NCCN1CCOC1=O)c1cnc(-c2cccnc2)nc1 | -3.86
79 | CCCc1cc(CNC2CCN(c3cc(C(C)C)nc(C)n3)CC2)on1 | -4.25
80 | CCn1ccnc1-c1nccn1-c1ccccc1CN1CCOCC1 | -8.91
81 | Cc1cnn(CC2CN(CC(=O)Nc3sccc3C#N)CCO2)c1 (stereo not given) | -0.129
82 | CN1CCC(O)(CNCc2ccc(F)c(C(F)(F)F)c2)CC1 | 22.4
83 | COc1cccc(CN(C)C(=O)CN2CCN(c3nccn3C)CC2)c1 | -6.12
84 | O=C(CCNc1ccc(Br)cn1)NCc1ccncc1 | 0.0133
85 | Cc1cc(C(=O)NCC(c2ccccc2Cl)N2CCOCC2)on1 (stereo not given) | -1.66
86 | COc1ccccc1N(C)S(=O)(=O)c1cc(C(=O)O)cs1 | -4.98
87 | Cc1cc(C)n(C(=O)c2cn(C)nc2S(=O)(=O)N2CCSCC2)n1 | -7.57
88 | OCC1CCCN1c1cc(NCCc2nccs2)ncn1 (stereo not given) | 0.047
89 | O=C(NCCN1CCOCC1)NCc1ccc(-n2cccn2)cc1 | 1.89
90 | O=C(C1CC=CC1)N1CCC2(CC1)CN(Cc1ccccn1)CCO2 | -4.02
91 | COc1cccc(Cl)c1C(C(=O)O)N(C)Cc1c(C)n[nH]c1C (stereo not given) | -12.4
92 | O=c1[nH]c(C2CCOC2)nc2ccc(Cl)cc12 (stereo not given) | 7.32

Row | SMILES | cytotoxicity at 70.5 h [%]
93 | O=C(CN1CSCC1=O)NCC1CCN(c2ccccc2)C1 (stereo not given) | -8.38
94 | O=C(CN1CCOCC1)N1CCN(C2CCc3ccc(F)cc32)CC1 (stereo not given) | -4.68
95 | CCn1cc(C(=O)NCC2(C(N)=O)CCOCC2)c2ccccc21 | 0.306
96 | CC(C)NC(=O)c1nc(Cn2c(C(F)(F)F)nc3ccccc32)no1 | 14.5
97 | O=C(CN1CCN(C(=O)c2ccccc2)CC1)Nc1ccc(Br)cn1 | -8.87
98 | COCC1CN(C(=O)CC2Cc3ccccc3C2)Cc2c1cnn2C (stereo not given) | -5.66
99 | Cc1ccccc1[C@@H]1CN(Cc2nc3ncccn3n2)C[C@H]1C(=O)O | 3.89
100 | CCCN(Cc1nccn1C)C(=O)c1cc(C)nc(C)n1 | -9.67
101 | c1cncc(CN2CCC(c3csc4nccn34)CC2)c1 | -4.71
102 | CC(C)N(Cc1ccc(Cl)c(Cl)c1)C(=O)CCn1cncn1 | -2.22
103 | Cc1nnc(-c2cccc(N3CCC(NC(C)CC(C)C)CC3)c2)s1 (stereo not given) | -4.36
104 | CC(C)NC(=O)CN(C)C(=O)c1c(Br)c2ccccc2n1C | -4.11
105 | COc1ccc(F)cc1C[S+]([O-])CC(=O)NCC(C)C (stereo not given) | -0.815
106 | CCCNC(c1ccc(F)cc1)c1cccnc1 (stereo not given) | -19.4
107 | Cc1cnc(CNC(=O)CCCn2cnc3ccccc3c2=O)cn1 | 6.51
108 | CCOc1ccccc1NC(=O)Nc1cc(N2CCCC2)ncn1 | 1.9
109 | CC(C)OCCCNC(=O)CS(=O)(=O)Cc1ccc(Cl)c(Cl)c1 | -9.73
110 | CCOC1CCN(C(=O)c2c(Cl)c3ccccc3n2C)CC1 | -7.26
111 | Cc1nn(C)cc1C(=O)NCc1cc(N(C)C)nc2ccccc12 | -0.83
112 | CCC1=N[C@@]2(CC[C@@H]3CN(S(=O)(=O)CC(C)C)C[C@@H]32)C(=O)N1C | -1.14
113 | O=S1(=O)CCC(S(=O)(=O)c2cccc(S(=O)(=O)N3CCCCCC3)c2)C1 (stereo not given) | -10.9
114 | CNCc1cc(F)ccc1Oc1ccc(F)cc1 | 2.53
115 | Cc1ccc(CN2CCC3(CC2)C(c2ccccc2)CC(=O)N3C)o1 (stereo not given) | 0.715

From ChEMBL document CHEMBL3507680, “University of Dundee, Gates Library screen for HepG2 cell viability”
